# Experimental data published in paper PMC7312375, “A Novel, Pan-PDE Inhibitor Exerts Anti-Fibrotic Effects in Human Lung Fibroblasts via Inhibition of TGF-β Signaling and Activation of cAMP/PKA Signaling” (International Journal of Molecular Sciences, 2020).
# Assays:
# PDE3B = target: T1, PDE3B (Homo sapiens, UniProt Q13370); assay: PDE-Glo assay, human recombinant PDE3B; format: biochemical; settings: read-out: PDE-IC50 3B
# T1 construct: purchased SignalChem
# Protocol: (§1) Inhibitory activities of the investigated compounds against various subtypes of human recombinant (hr)PDEs, namely PDE1A, PDE1B, PDE1C, PDE3A, PDE3B, PDE4A, PDE4B, PDE4D, PDE7A, and PDE8A were assessed using a PDE-Glo^TM Assay Kit (Promega, Madison, WI, USA) according to the protocol provided by the manufacturer. Briefly, appropriate amounts of each enzyme (SignalChem, Richmond, B.C., Canada), diluted with PDE-Glo reaction buffer, were distributed on a 384-well plate (Thermo Scientific, Waltham, MA, USA). The investigated compounds were dissolved in DMSO, diluted with the same vehicle, and mixed with the reaction buffer at a v/v ratio of 1:5. Thereafter, 1 µL of these mixtures and 2.5 µL of the cAMP solution as a substrate were added. The final cAMP concentration was 0.05 µM. The samples were incubated for 10 min at 30 °C. Then, 2.5 µL of termination buffer and 2.5 µL of PDE-Glo detection solution were added to each well and incubated for 20 min. Finally, 10 µL of PDE-Glo kinase reagent was added, and luminescence was measured using the POLARstar Omega plate reader (BMG LABTECH, Ortenberg, Germany). Each sample was prepared in quadruplicate. The relative activities (A, %) of all samples were calculated from the following equation: A = [(LUsample − LUblank)/(LUcontrol − LUblank)]·100%; where LUcontrol is the luminescence of a control sample in the absence of a PDE inhibitor, LUsample is a luminescence of an investigated sample in the presence of an inhibitor, and LUblank is a luminescence of a sample in the absence of enzyme (activity = 0). IC50 values were estimated using non-linear regression.
# [1] = tested on: TGF-β1-induced MRC-5 cells; assay: Protein kinase A activity; format: cell-based, human; settings: 10 µM 30 min, then TGF-β1 30 min
# Protocol: Protein Kinase A (PKA) activity in MRC-5 cells was determined using a PKA Colorimetric Activity Kit (Invitrogen, Carlsbad, CA, USA) according to the manufacturer’s protocol. MRC-5 cells were seeded in standard culture medium, and after 48 h they were serum-starved for 2 h in HBSS, followed by the addition of study compounds (10 µM) and incubation for 30 min. Finally, TGF-β1 was administered, and the samples were incubated for an additional 30 min. Whole cell lysates were used in the assay. The amount of PKA was normalized to the total protein content in each sample. The experiments were run two times in duplicates.
# PDE4A = target: T2, PDE4A (Homo sapiens, UniProt P27815); assay: PDE-Glo assay, human recombinant PDE4A; format: biochemical; settings: read-out: PDE-IC50 4A
# T2 construct: purchased SignalChem
# Protocol: as §1
# [2] = tested on: TGF-β1-induced MRC-5 cells; assay: Western blot of p-Smad-2; format: cell-based, human; settings: 10 µM, 1 h pre-incubation, TGF-β1 5 ng/mL 1 h
# Protocol: Western Blot analysis was performed according to a standard protocol. Briefly, MRC-5 cells were pre-incubated with the study compounds (10 µM) for 1 h, […] (RIPA Lysis and Extraction Buffer, Thermo Fisher Scientific, Waltham, MA, USA) and supplemented with protease inhibitor cocktail and phosphatase inhibitor cocktail (both from Sigma Aldrich, St. Louis, MO, USA). Equal amounts of protein (30 µg) were separated using 10% SDS-polyacrylamide gels and transferred onto polyvinylidene difluoride (PVDF) membranes (Thermo Fisher Scientific, Waltham, MA, USA). Then membranes were washed with Tris Buffered Saline with Tween 20 (TBST) buffer (150 mM NaCl, 50 mM Tris, 0.05% Tween 20), blocked with 5% skim milk in TBST and incubated overnight with the appropriate primary antibody: rabbit, polyclonal anti-SMAD2 antibody, dilution 1:250, #51-1300 and rabbit, polyclonal anti-phospho-SMAD2 (Ser465, Ser467) antibody, dilution 1:500, #44-244G (both from Thermo Fisher Scientific, Waltham, MA, USA); rabbit, polyclonal anti-CREB1 antibody, dilution 1:500, #orb213777 and rabbit, polyclonal anti-phospho-CREB1 (Ser133) antibody, dilution 1:500, #orb213775 (both from Biorbyt LLC, San Francisco, CA, USA); mouse monoclonal anti-GAPDH antibody, dilution 1:5000, #G8795 (Sigma Aldrich, St. Louis, MO, USA). The next day, after gentle rising, membranes were exposed to secondary, rabbit anti-mouse IgG (whole molecule) peroxidase antibody (#A9044, dilution 1:3000, Sigma Aldrich, St. Louis, MO, USA) and goat anti-rabbit IgG (H+L) peroxidase-conjugated antibody (#32460, dilution 1:3000, Thermo Fisher Scientific, Waltham, MA, USA). Blots were visualized using a chemiluminescence method (Clarity Max™ Western ECL Substrate—Peroxide Solution, BioRad, Hercules, CA, USA) with a C-DiGit® Blot Scanner (LI-COR Biosciences, Lincoln, NE, USA). ROD was measured according to the NIH guidelines with Fiji ImageJ Software. The experiments were run four times.
# MRC-5 cells [3] = assay: cAMP ELISA; format: cell-based, human; settings: 10 µM, 30 min
# Protocol: MRC-5 cells were seeded in standard culture medium for 24 h and then serum-starved for 2 h in HBSS. The study compounds (10 µM) were added to the MRC-5 cultures and after 30 min of incubation, the intracellular cAMP level in cell lysates was measured using a colorimetric cAMP ELISA Kit according to the manufacturer’s protocol (Cell Biolabs, INC., San Diego, CA, USA). Obtained results were normalized to total protein content in each sample. The experiments were run two times in duplicates.
# MRC-5 cells [4] = assay: TGF-β1-induced collagen gel contraction assay; format: cell-based, human; settings: 10 µM, 1 h pre-incubation, 6 h TGF-β1; compared to TGF-β1 alone
# Protocol: A collagen cell contraction assay was performed according to manufactures’ instructions (Cell Biolabs, INC., San Diego, CA, USA). Briefly, MRC-5 was harvested and mixed with a collagen solution. After polymerization, collagen gel lattices were cultured for two days, during which mechanical tension develops. Before releasing the stressed matrix, MRC-5 cells were pre-treated with study compounds (10 µM) for 1 h. Then collagen gels were gently released from the sides of the culture dishes and contraction in the presence of study compounds, and TGF-β1 was initiated. The collagen gel size was monitored at various time points and quantified with the Fiji ImageJ Software (National Institutes of Health, Bethesda, MD, USA, version 1.52q). The experiments were run three times.
# T1 sequence (Q13370 whole entry): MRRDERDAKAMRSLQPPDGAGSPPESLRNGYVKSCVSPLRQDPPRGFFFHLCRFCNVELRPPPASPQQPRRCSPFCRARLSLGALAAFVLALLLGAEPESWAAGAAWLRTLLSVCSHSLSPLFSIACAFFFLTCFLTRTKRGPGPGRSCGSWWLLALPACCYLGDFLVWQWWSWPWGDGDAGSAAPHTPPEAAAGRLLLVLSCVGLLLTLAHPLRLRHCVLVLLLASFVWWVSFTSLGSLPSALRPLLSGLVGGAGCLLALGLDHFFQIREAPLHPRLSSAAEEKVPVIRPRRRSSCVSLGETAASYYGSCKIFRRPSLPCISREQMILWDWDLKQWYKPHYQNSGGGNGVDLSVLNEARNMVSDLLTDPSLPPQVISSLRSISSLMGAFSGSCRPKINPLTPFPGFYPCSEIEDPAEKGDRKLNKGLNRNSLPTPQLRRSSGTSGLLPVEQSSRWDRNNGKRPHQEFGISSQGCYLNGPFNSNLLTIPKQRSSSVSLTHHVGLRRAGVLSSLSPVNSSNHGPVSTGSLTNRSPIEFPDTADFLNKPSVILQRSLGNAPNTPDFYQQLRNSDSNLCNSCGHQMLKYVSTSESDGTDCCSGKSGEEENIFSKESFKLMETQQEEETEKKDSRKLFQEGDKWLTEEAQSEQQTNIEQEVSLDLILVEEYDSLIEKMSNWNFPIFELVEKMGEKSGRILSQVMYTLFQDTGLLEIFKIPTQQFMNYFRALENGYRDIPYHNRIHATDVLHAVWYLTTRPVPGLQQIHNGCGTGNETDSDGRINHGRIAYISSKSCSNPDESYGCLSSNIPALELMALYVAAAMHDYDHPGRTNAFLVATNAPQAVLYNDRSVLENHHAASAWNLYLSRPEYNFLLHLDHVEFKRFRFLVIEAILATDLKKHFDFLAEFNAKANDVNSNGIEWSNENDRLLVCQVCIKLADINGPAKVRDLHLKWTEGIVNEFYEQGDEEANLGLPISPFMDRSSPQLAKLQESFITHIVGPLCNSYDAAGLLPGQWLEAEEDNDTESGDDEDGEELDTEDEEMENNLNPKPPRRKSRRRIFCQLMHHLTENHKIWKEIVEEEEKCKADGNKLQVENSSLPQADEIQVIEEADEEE
# T2 sequence (P27815 whole entry): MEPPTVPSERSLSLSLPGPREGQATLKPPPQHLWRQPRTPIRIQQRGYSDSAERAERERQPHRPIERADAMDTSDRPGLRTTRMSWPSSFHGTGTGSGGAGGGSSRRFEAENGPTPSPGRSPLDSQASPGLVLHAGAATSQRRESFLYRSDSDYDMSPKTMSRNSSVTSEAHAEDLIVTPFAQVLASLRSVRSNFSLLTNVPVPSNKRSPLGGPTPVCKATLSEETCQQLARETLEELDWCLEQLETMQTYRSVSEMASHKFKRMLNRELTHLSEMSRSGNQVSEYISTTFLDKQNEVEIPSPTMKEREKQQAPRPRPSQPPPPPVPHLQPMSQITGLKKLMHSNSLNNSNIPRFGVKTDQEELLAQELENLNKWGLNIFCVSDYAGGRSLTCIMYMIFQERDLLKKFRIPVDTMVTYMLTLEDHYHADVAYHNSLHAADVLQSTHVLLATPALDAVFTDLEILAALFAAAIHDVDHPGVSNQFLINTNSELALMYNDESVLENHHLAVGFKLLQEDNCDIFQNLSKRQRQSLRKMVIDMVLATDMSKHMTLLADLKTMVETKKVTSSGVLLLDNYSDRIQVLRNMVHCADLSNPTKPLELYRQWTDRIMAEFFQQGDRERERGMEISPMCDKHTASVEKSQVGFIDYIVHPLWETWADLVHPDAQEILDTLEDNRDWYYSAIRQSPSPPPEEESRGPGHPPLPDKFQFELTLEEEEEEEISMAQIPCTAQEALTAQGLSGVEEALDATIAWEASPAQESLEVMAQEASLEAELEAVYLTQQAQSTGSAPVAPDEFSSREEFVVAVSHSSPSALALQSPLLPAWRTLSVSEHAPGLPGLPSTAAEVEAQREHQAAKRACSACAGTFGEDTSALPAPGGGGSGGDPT
Structure (SMILES),IC50 (PDE3B),Protein kinase A activity in TGF-β1-induced fibroblasts [1],IC50 (PDE4A),TGF-β1-induced Smad-2 phosphorylation (immunoblot) [2],increase in cAMP level compared to control (MRC-5 cells [3]),size of collagen gel lattices (TGF-β1-induced contraction) (MRC-5 cells [4]),cAMP level (MRC-5 cells [3]; control 508.87)
"Cn1c(=O)c2c(nc(NCc3ccco3)n2CCCC(=O)NN=Cc2ccc(O)cc2O)n(C)c1=O [Compound 832, N′-(2,4-dihydroxybenzylidene)-4-(8-((furan-2-ylmethyl)amino)-1,3-dimethyl-2,6-dioxo-1,2,3,6-tetrahydro-7H-purin-7-yl)butanehydrazide]",0.42 µM,slightly lower,4.75 µM,no differences,2.16 fold,increased only slightly,–
"CCCCOc1nc2c(c(=O)n(C)c(=O)n2C)n1CCCC(=O)Nc1cc(C(C)(C)C)ccc1O [Compound 145, 4-(8-butoxy-1,3-dimethyl-2,6-dioxo-1,2,3,6-tetrahydro-7H-purin-7-yl)-N-(5-(tert-butyl)-2-hydroxyphenyl)butanamide]",2.05 µM,slightly lower,1.59 µM,reduced,4.5 fold,restored the size of collagen gel lattices to that of the untreated control,2262.07 fmol/mL/mg of protein
"COc1nc2c(c(=O)n(C)c(=O)n2C)n1CC(=O)Nc1ccc(C(C)(C)C)cc1 [Compound 869, N-(4-(tert-butyl)phenyl)-2-(8-methoxy-1,3-dimethyl-2,6-dioxo-1,2,3,6-tetrahydro-7H-purin-7-yl)acetamide]",157 µM,no significant change,58.1 µM,no differences,–,increased only slightly,–
"CC(C)Cn1c(=O)n(C)c(=O)c2[nH]cnc21 [IBMX, 3-isobutyl-1-methyl-3,7-dihydro-1H-purine-2,6-dione, reference compound]",0.31 µM,slightly lower,16.4 µM,no differences,2.53 fold,restored the size of collagen gel lattices to that of the untreated control,–
